Where two headings read alike, the source gives them in different places.
Columns and labels:
[1] = system: H69 cells; assay: Cell Counting Kit-8 cytotoxicity and drug combination, H69
Experimental: A Mann-Whitney U test was used for comparison between the normal and SCLC samples. FIG. 1B: IHC for PP2A was conducted on TMA tissue sections and images were captured at 4× or 20× using a 3D-Histech PANNORAMIC SCAN whole slide scanner (3D-Histech, Budapest, Hungary). […] TMAs were scored in normal (n=24) and tumor (n=79) cores on a scale from 0 (no staining/no protein expression) to 3+(strong staining/high protein expression). FIG. 1C: Summary bar graph of the average PP2A subunit staining. IHC staining intensity of normal and tumor cores. […] FIG. 1D: In order to compare the expression of PP2A subunits A and C, cell lysates from seven SCLC cell lines and HBEC 3KT (non-malignant cell line) were subjected to western blotting. FIG. 1E: PP2A activity was determined using a serine/threonine phosphatase activity assay (Millipore) after 24 h exposure to cantharidin (10 μM) and LB-100 (5 μM). […] The Cell Counting Kit-8 assay detected cell H524 and H69 cell viability. […] FIGS. 1I-1K: Graphs depict the mean+SEM of percent viability for cells (n=3). Colony formation assays were used to count the ability of H524 (FIGS. 11 and 1J) and H69 (FIGS. 1K and 1L) cells to form colonies. […] Representative images of colonies at 4× are shown under the graph (n=2).*p<0.05; **, p<0.01; *** p<0.001; ****, p<0.0001. Experiments were repeated in triplicate and representative data are shown.

[2] = system: H69 cells; assay: Glucose uptake assay (glucose oxidase); assay type: cell-based; conditions: LB-100 20 μM, compared with control without cells
Text: FIGS. 4A-4F depict a reactome pathway analysis of PamGene PTKs and STKs after LB-100 treatment of H524 cells and Biolog phenotype MicroArray. […] Table includes 10 carbon sources affected by LB-100 (n=3). […] P<0.001 (***) for control (untreated cells) vs. LB-100. FIG. 4D: Amplex Red Glucose/Oxidase assay kit was used to measure glucose level in cell culture media. […] Glucose concentration detected in initial medium and counted as 100%. Subtracting final medium level of glucose from initial glucose medium concentration yielded % glucose in the medium with cells (n=3). Effect of LB-100 on MET phosphorylation. FIG. 4E: H524 and H69 cells were treated overnight with LB-100 (H524—5 μM and H69—20 μM) following by stimulation with 100 ng/ml HGF in 10 min. Cells were collected and lysed for WB analysis with pMET and total MET antibody. Pan-actin was used as loading control (n=3). FIG. 4F: H524 cell lysates (control, LB-100, carboplatin and combination (LB-100/carboplatin) were analyzed by western blots to check phosphorylation status of MET at Ser985 and Tyr1234/1235. Actin was used as a loading control (n=3). […]
Glucose consumption was determined by using a colorimetric glucose assay (Invitrogen, Carlsbad, Calif.) following the manufacturer's instructions. […] The uptake of glucose was determined compared with initial glucose concentration in the cell culture medium, which was taken as 100%.

With `C[NH+]1CCN(C(=O)C2C(C(=O)O)[C@H]3CC[C@@H]2O3)CC1` (stereo in doubt) [LB-100, 3-[(4-Methylpiperazin-1-yl)carbonyl]-7-oxabicyclo[2.2.1]heptane-2-carboxylic acid] the IC50 ([1]; Homo sapiens, NCI-H69, 72 h, read-out: Cytotoxicity IC50, H69, 72 hours) was roughly 20 µM, the IC50 ([1]; human, 72 h) was 22.6 µM and the “reduction of consumption of glucose in media” value [2] was 65%.

Reference: patent US20230065158A1, “OXABICYCLOHEPTANES FOR TREATMENT OF SMALL CELL LUNG CANCER” (Lixte Biotechnology, Inc., priority 2021, published 2023)
